The target in the assay is T1, Human cRaf1 (Homo sapiens, UniProt P04049).
T1 construct: poly-histidine (C); made in house
The experiment in a line: Raf kinase assay (cRaf1 assay / Raf/MEK cascade assay). The format is biochemical. The settings on record: Table 3; read-out: Raf Kinase activity. The protocol: The potency of cRaf1 dependent kinase activity was measured using one of two assay formats. The first measured cRaf1 catalyzed phosphorylation of MEK1, the natural substrate for cRaf1. This assay is referred to as the cRaf1 assay. The second measured the ability of cRaf1 to phosphorylate and activate MEK1. This assay is referred to as the Raf/MEK cascade assay.
Human cRaf1 tagged with poly histidine at the carboxyterminus was expressed in a baculovirus expression system and purfied by Ni chelate affinity chromatography. Human MEK1 was expressed in E. coli as a fusion protein with Glutathione-S-transferase, and purified by glutathione sepharose affinity chromatography. […] Reactions contained cRaf1 (20 nM), MEK1 (100-500 nM), [γ-^32 P]ATP ([…]), Mg^2+ (10 mM), MOPS (50 mM, pH 7.5). Reactions were incubated at room temperature for periods of time ranging from 20-120 minutes. Inhibitors were diluted in 100% DMSO prior to addition to the assay. Reactions were terminated with an equal volume of 0.5% phosphoric acid. MEK1 phosphorylation was detected by scintillation counting following collection of protein onto phosphocellulose filters.
Human cRaf1 and MEK1 were purified as described above. A peptide substrate phosphorylated by MEK1 was used as the final phosphoryl group acceptor. […] Assay conditions were the same as those described above except for the following modifications. Reactions contained cRaf1 (1-5 nM), MEK1 (60 nM), and peptide ([…]).

In the case of “2,6-Dibromo-4-[(5-glycoloyl-2-oxo-1,2-dihydro-3H-indol-3-ylidene)methyl]phenyl ethyl carbonate [Example 155]”, the IC50 was 10000 to 100000 nM. Consider “3-(3,5-Dibromo-4-hydroxy-benzylidene)-5-(3-methylimidazol-1-yl-acetyl)-1,3-dihydro-indol-2-one [Example 71]”, for which the IC50 is less than 1000 nM. With “3-(3-Bromo-4-hydroxy-5-ethoxy-benzylidene)-5-(2-dimethylamino-acetyl)-1,3-dihydro-indol-2-one [Example 111]”, the IC50 is less than 1000 nM. Consider “5-{2-[N-Benzyl-N-(2-hydroxy-acetyl)-amino]-ethyl}-3-(3,5-dibromo-4-hydroxy-benzylidene)-1,3-dihydro-indol-2-one [Example 78]”, for which the IC50 is less than 1000 nM. For `CCOc1cc(C=C2C(=O)Nc3ccc(-c4csc(C)n4)cc32)cc(Br)c1O` [Example 3, 3-(3-Bromo-5-ethoxy-4-hydroxy-benzylidene)-5-(2-methyl-thiazol-4-yl)-1,3-dihydro-indol-2-one], the IC50 is less than 1000 nM. Then `Cc1nc(-c2ccc3c(c2)C(=Cc2cc(Cl)c(O)c(Cl)c2)C(=O)N3)cs1` [Example 4], with less than 1000 nM; and `CC(C)CC(=O)c1ccc2c(c1)C(=Cc1cc(Br)c(O)c(Br)c1)C(=O)N2` [Example 5], with less than 1000 nM; and `O=C1Nc2ccc(C(=O)c3ccccc3)cc2C1=Cc1cc(Br)c(O)c(Br)c1` [Example 6, 5-Benzoyl-3-(3,5-dibromo-4-hydroxy-benzylidene)-1,3 dihydro-indol-2-one], with less than 1000 nM. Regarding `O=C1Nc2ccc(C(=O)c3ccccc3)cc2C1=Cc1cc(Cl)c(O)c(Cl)c1` [Example 7, 5-Benzoyl-3-(3,5-dichloro-4-hydroxy-benzylidene)-1,3-dihydro-indol-2-one], the IC50 was less than 1000 nM. With `CC(C)CC(=O)c1ccc2c(c1)C(=Cc1cc(Cl)c(O)c(Cl)c1)C(=O)N2` [Example 9], the IC50 was less than 1000 nM. For the molecule `CCOc1cc(C=C2C(=O)Nc3ccc(C(=O)CC(C)C)cc32)cc(Br)c1O` [Example 10, 3-(3-Bromo-5-ethoxy-4-hydroxy-benzylidene)-5-(3-methyl-butanoyl)-1,3-dihydro-indol-2-one], the IC50 was less than 1000 nM. In the case of `O=C1Nc2ccc(C(=O)c3cccnc3)cc2C1=Cc1cc(Br)c(O)c(Br)c1` [Example 11], the IC50 is less than 1000 nM. As for `O=C1Nc2ccc(C(=O)c3cccnc3)cc2C1=Cc1cc(Cl)c(O)c(Cl)c1` [Example 12, 3-(3,5-Dichloro-4-hydroxy-benzylidiene)-5-(pyridine-3-carbonyl)-1,3-dihydro-indol-2-one], the figure is less than 1000 nM; as for `O=C1Nc2ccc(C(=O)c3ccncc3)cc2C1=Cc1cc(Br)c(O)c(Br)c1` [Example 13, 3-(3,5-Dibromo-4-hydroxy-benzylidene)-5-(pyridine-4-carbonyl)-1,3-dihydro-indol-2-one], less than 1000 nM. Turning to `CCOc1cc(C=C2C(=O)Nc3ccc(C(=O)c4ccncc4)cc32)cc(Br)c1O` [Example 14, 3-(3-Bromo-5-ethoxy-4-hydroxy-benzylidene)-5-(pyridine-4-carbonyl)-1,3-dihydro-indol-2-one], the IC50 was less than 1000 nM. With `O=C1Nc2ccc(C(=O)c3ccncc3)cc2C1=Cc1cc(Cl)c(O)c(Cl)c1` [Example 15, 3-(3,5-Dichloro-4-hydroxy-benzylidene)-5-(pyridine-4-carbonyl)-1,3-dihydro-indol-2-one], the IC50 was less than 1000 nM.

`CCOc1cc(C=C2C(=O)Nc3ccc(C(=O)c4cccnc4)cc32)cc(Br)c1O` [Example 16, 3-(3-Bromo-5-ethoxy-4-hydroxy-benzylidene)-5-(pyridine-3-carbonyl)-1,3-dihydro-indol-2-one]: the IC50 was less than 1000 nM. On to `O=C1Nc2ccc(-c3cnco3)cc2C1=Cc1cc(Cl)c(O)c(Cl)c1` [Example 17], for which the IC50 is less than 1000 nM. Then `O=C1Nc2ccc(-c3cnco3)cc2C1=Cc1cc(Br)c(O)c(Br)c1` [Example 18, 3-(3,4-Dibromo-4-hydroxy-benzylidene)-5-(oxazol-5-yl)-1,3-dihydro-indol-2-one], with less than 1000 nM. As for `CCc1nc(-c2ccc3c(c2)C(=Cc2cc(Br)c(O)c(Br)c2)C(=O)N3)cs1` [Example 19, 3-(3,5-Dibromo-4-hydroxy-benzylidene)-5-(2-ethyl-thiazol-4-yl)-1,3-dihydro-indol-2-one], the figure is less than 1000 nM. Then `COC(=O)c1ccc2c(c1)C(=Cc1cc(Br)c(O)c(Br)c1)C(=O)N2` [Example 20, 3-(3,5-Dibromo-4-hydroxy-benzylidene)-2-oxo-2,3-dihydro-1H-indol-5-carboxylic acid methyl ester], with less than 1000 nM. In the case of `O=C1Nc2ccc(C(=O)c3ccco3)cc2C1=Cc1cc(Br)c(O)c(Br)c1` [Example 21], the IC50 is less than 1000 nM. On to `O=C1Nc2ccc(C(=O)c3ccco3)cc2C1=Cc1cc(Cl)c(O)c(Cl)c1` [Example 22], for which the IC50 was less than 1000 nM. For the molecule `CCOc1cc(C=C2C(=O)Nc3ccc(C(=O)c4ccco4)cc32)cc(Br)c1O` [Example 23], the IC50 was less than 1000 nM. With `O=C1Nc2ccc(C(=O)C3CC3)cc2C1=Cc1cc(Br)c(O)c(Br)c1` [Example 24, 5-Cyclopropanecarbonyl-3-(3,5-dibromo-4-hydroxy-benzylidene)-1,3-dihydro-indol-2-one], the IC50 is less than 1000 nM.

Take `O=C1Nc2ccc(C(=O)C3CCCC3)cc2C1=Cc1cc(Br)c(O)c(Br)c1` [Example 26, 5-Cyclopentanecarbonyl-3-(3,5-dibromo-4-hydroxy-benzylidene)-1,3-dihydro-indol-2-one]: the IC50 was less than 1000 nM.

Regarding `COC(=O)c1ccc2c(c1)C(=Cc1cc(Cl)c(O)c(Cl)c1)C(=O)N2` [Example 27, 3-(3,5-Dichloro-4-hydroxy-benzylidene)-2-oxo-2,3-dihydro-1H-indole-5-carboxylic acid methyl ester], the IC50 was less than 1000 nM. For `O=C1Nc2ccccc2C1=Cc1cc(Br)c(O)c(Br)c1` [Example 28, 3-(3,5-Dibromo-4-hydroxy-benzylidene)-1,3-dihydro-indol-2-one], the IC50 was 1000 to 10000 nM. As for `O=C1Nc2ccc(C(=O)c3cccs3)cc2C1=Cc1cc(Br)c(O)c(Br)c1` [Example 29, 3-(3,5-Dibromo-4-hydroxy-benzylidene)-5-(thiophene-2-carbonyl)-1,3-dihydro-indol-2-one], the figure is less than 1000 nM; as for `Nc1nc(-c2ccc3c(c2)C(=Cc2cc(Br)c(O)c(Br)c2)C(=O)N3)cs1` [Example 30, 5-(2-Amino-thiazol-4-yl)-3-(3,5-dibromo-4-hydroxy-benzylidene)-1,3-dihydro-indol-2-one], less than 1000 nM; as for `O=C1Nc2ccc(-c3cn4ccccc4n3)cc2C1=Cc1cc(Br)c(O)c(Br)c1` [Example 31, 3-(3,5-Dibromo-4-hydroxy-benzylidene)-5-(imidazo[1,2a]pyridin-2-yl)-1,3-dihydro-indol-2-one], less than 1000 nM. Then `CCC(=O)c1ccc2c(c1)C(=Cc1cc(Br)c(O)c(Br)c1)C(=O)N2` [Example 32, 3-(3,5-Dibromo-4-hydroxy-benzylidene)-5-propionyl-1,3-dihydro-indol-2-one], with less than 1000 nM.

For the molecule `NS(=O)(=O)c1ccc2c(c1)C(=Cc1cc(Br)c(O)c(Br)c1)C(=O)N2` [Example 33, 3-(3,5-Dibromo-4-hydroxy-benzylidene)-2-oxo-2,3-dihydro-1H-indole-5-sulfonic acid amide], the IC50 was less than 1000 nM. Then `CCN(CC)S(=O)(=O)c1ccc2c(c1)C(=Cc1cc(Br)c(O)c(Br)c1)C(=O)N2` [Example 34, 3-(3,5-Dibromo-4-hydroxy-benzylidene)-2-oxo-2,3 dihydro-1H-indole-5-sulfonic acid N,N-diethylamide], with less than 1000 nM; and `O=C1Nc2ccc(S(=O)(=O)N3CCCC3)cc2C1=Cc1cc(Br)c(O)c(Br)c1` [Example 35, 3-(3,5-Dibromo-4-hydroxy-benzylidene)-5-(pyrrolidine-1-sulfonyl)-1,3-dihydro-indol-2-one], with less than 1000 nM; and `CN(C)CCN(C)S(=O)(=O)c1ccc2c(c1)C(=Cc1cc(Br)c(O)c(Br)c1)C(=O)N2` [Example 36, 3-(3,5-Dibromo-4-hydroxy-benzylidene)-2-oxo-2,3-dihydro-1H-indol-5-sulfonic acid (N-2-dimethylamino-ethyl)-N-methyl-amide], with less than 1000 nM. Consider `O=C1Nc2ccc(C(=O)c3ccno3)cc2C1=Cc1cc(Br)c(O)c(Br)c1` [Example 37, 3-(3,5-Dibromo-4-hydroxy-benzylidene)-5-(isoxazole-5-carbonyl)-1,3-dihydro-indol-2-one], for which the IC50 is less than 1000 nM.

Take `O=C1Nc2ccc(Cl)cc2C1=Cc1cc(Br)c(O)c(Br)c1` [Example 38, 5-Chloro-3-(3,5-dibromo-4-hydroxy-benzylidene)-1,3-dihydro-indol-2-one]: the IC50 is less than 1000 nM. As for `O=C1Nc2ccc(Cl)cc2C1=Cc1cc(Cl)c(O)c(Cl)c1` [Example 39, 5-Chloro-3-(3,5-dichloro-4-hydroxy-benzylidene)-1,3-dihydro-indol-2-one], the figure is less than 1000 nM; as for `O=C1Nc2ccc(OC(F)(F)F)cc2C1=Cc1cc(Br)c(O)c(Br)c1` [Example 40, 3-(3,5-Dibromo-4-hydroxy-benzylidene)-5-trifluoromethoxy-1,3-dihydro-indol-2-one], less than 1000 nM.

The record behind these values is patent US6268391A, “Benzylidene-1,3-dihydro-indol-2-one derivatives a receptor tyrosine kinase inhibitors, particularly of Raf kinases” (Glaxo Wellcome Inc., priority 1997, dated 2001).
